# According to patent US5599966A, “Substituted ethanolamine esters” (BYK Nederland BV, priority 1992, dated 1997):
# Structures can show the parent of a compound that is named as a salt. Where two headings read alike, the source gives them in different places.
# System: guinea pig trachea
# Assay: relaxing action on guinea pig trachea contracted beforehand with methacholine (in vitro, organ bath)
# Type: cell-based
# Details: Cavia porcellus, read-out: -log[EC50 (mol/l)] (converted)
# Procedure: For this, the relaxing action on a guinea pig trachea which has been contracted beforehand with a suitable dose of methacholine is measured for the compounds to be investigated. The trachea of male guinea pigs (200-300 g) is removed and divided into individual segments and each segment is suspended in an organ bath with 118.5 mM NaCl, 4.7 mM KCl, 1.2 mM MgSO4, 2.5 mM CaCl2, 1.2 mM KH2 PO4, 25 mM NaHCO3 and 10 mM glucose at 37° C. Oxygen to which 5% of CO2 has been added is passed permanently through the solution. After stabilization, the trachea is contracted with a suitable dose of methacholine. Thereafter, a dose/effect curve is plotted with the test substances in a cumulative manner. The concentration (mol/l) which corresponds to 50% of the maximum effect (EC50) is then determined from this curve. This EC50 is thus a measure of the activity of the compounds according to the invention.
# The serial number in the table agrees with the number of the compounds in the examples. The number n indicates the number of investigations.
# [1] = in vitro relaxation of methacholine-contracted guinea pig trachea segments, cumulative dose/effect curve, 37° C., n = 3 to 6
Compound,EC50 [1] [nM],EC50 [nM]
"Nc1c(Cl)cc(C(O)CNCCCCCCOC(=O)CCc2ccc(O)cc2)cc1Cl (stereo not shown) [Compound 17, {6-[2-(4-Amino-3,5-dichlorophenyl)-2-hydroxyethylamino]-1-hexyl}[3-(4-hydroxyphenyl)]propionate-hydrochloride]",20,
"Nc1c(Cl)cc(C(O)CNCCCCCC(=O)OCCc2cccc3ccccc23)cc1Cl (stereo not shown) [Compound 19, 2-(1-Naphthyl)ethyl 6-[2-(4-amino-3,5-dichlorophenyl)-2-hydroxyethylamino]hexanoate]",6.31,
"Nc1c(Cl)cc(C(O)CNCCCCCC(=O)OCCc2ccccn2)cc1Cl (stereo not shown) [Compound 32, 2-(2-Pyridyl)ethyl6-[2-(4-amino-3,5-dichlorophenyl)-2-hydroxyethylamino]hexanoate-hemifumarate]",15.8,
"Nc1c(Cl)cc(C(O)CNCCCCCCOC(=O)Cc2cccc3ccccc23)cc1Cl (stereo not shown) [Compound 34, {6-[2-(4-Amino-3,5-dichlorophenyl)-2-hydroxyethylamino]-1-hexyl}1-naphthylacetate-maleate]",3.16,
"Nc1c(Cl)cc(C(O)CNCCCCCC(=O)OCCc2ccc(O)cc2)cc1Cl (stereo not shown) [Compound 37, 2-(4-Hydroxyphenyl)ethyl 6-[2-(4-amino-3,5-dichlorophenyl)-2-hydroxyethylamino]hexanoate]",2,
"O=C(CCCCCNCC(O)c1ccc(O)c(CO)c1)OCCCCc1ccccc1 (stereo not shown) [Compound 64, 4-Phenylbutyl 6-[2-hydroxy-2-(4-hydroxy-3-hydroxymethylphenyl)ethylamino]hexanoate-oxalate]",10,
"N#Cc1cc(C(O)CNCCCCCC(=O)OCCc2ccccc2)cc(Cl)c1N (stereo not shown) [Compound 74, 2-Phenylethyl 6-[2-(4-amino-5-chloro-3-cyanophenyl)-2-hydroxyethylamino]hexanoate-hemifumarate]",3.98,
"Nc1ccc(C(O)CNCCCCCCOC(=O)Cc2ccccc2Cl)c(Cl)c1Cl (stereo not shown) [Compound 82, {6-[2-(4-Amino-2,3-dichlorophenyl)-2-hydroxyethylamino]-1-hexyl}2-chlorophenylacetate-hemifumarate]",10,
"Nc1c(Cl)cc(C(O)CNCCCCCC(=O)OCCc2c[nH]c3ccccc23)cc1Cl (stereo not shown) [Compound 103, 2-(3-Indolyl)ethyl 6-[2-(4-amino-3,5-dichlorophenyl)-2-hydroxyethylamino]hexanoate-hemifumarate]",3.16,
"Nc1c(Cl)cc(C(O)CNCCOCCOC(=O)Cc2ccccc2)cc1Cl (stereo not shown) [Compound 106, {2-[2-[2-(4-Amino-3,5-dichlorophenyl)-2-hydroxyethylamino]ethoxy]ethyl}phenylacetate-fumarate]",,7.94
